pIC50: −log10 of the molar value.
Tested on: 857933-349-R-J2-PDC complex spheroid viability
Test: Anticancer human tumor 857933-349-R-J2-PDC patient-derived colon adenocarcinoma cell line growth inhibition [POLQ]
Details: for pIC50: curve of first compound; for viability, T/C: stronger effect = lower value
Procedure, shortened: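 Complex spheroid viability model combining PDC tumour cells with endothelial (HUVEC) and MSC stromal cells. Novobiocin, ART-558 or RP6685 were tested singly and in combination with standard and investigational anticancer drugs. Each was titrated in half-log steps from near clinical Cmax, or from 10 microM where Cmax was unknown.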

[1] = second compound 0.0316 µM, first compound 0.0316 µM
[2] = second compound 0.0316 µM, first compound 0.1 µM
[3] = second compound 0.1 µM, first compound 0.0316 µM
[4] = second compound 0.1 µM, first compound 0.1 µM
[5] = second compound 0.316 µM, first compound 0.0316 µM
[6] = second compound 0.316 µM, first compound 0.1 µM
[7] = second compound 1 µM, first compound 0.0316 µM
[8] = second compound 1 µM, first compound 0.1 µM
[9] = second compound 3.16 µM, first compound 0.0316 µM
[10] = second compound 3.16 µM, first compound 0.1 µM
[11] = second compound 10 µM, first compound 0.0316 µM
[12] = second compound 10 µM, first compound 0.1 µM
[13] = second compound 0.0316 µM, first compound 0.316 µM
[14] = second compound 0.0316 µM, first compound 1 µM
[15] = second compound 0.0316 µM, first compound 3.16 µM
[16] = second compound 0.0316 µM, first compound 10 µM
[17] = second compound 0.1 µM, first compound 0.316 µM
[18] = second compound 0.1 µM, first compound 1 µM
[19] = second compound 0.1 µM, first compound 3.16 µM
[20] = second compound 0.1 µM, first compound 10 µM
[21] = second compound 0.316 µM, first compound 0.316 µM
[22] = second compound 0.316 µM, first compound 1 µM
[23] = second compound 0.316 µM, first compound 3.16 µM
[24] = second compound 0.316 µM, first compound 10 µM
[25] = second compound 1 µM, first compound 0.316 µM
[26] = second compound 1 µM, first compound 1 µM
[27] = second compound 1 µM, first compound 3.16 µM
[28] = second compound 1 µM, first compound 10 µM
[29] = second compound 3.16 µM, first compound 0.316 µM
[30] = second compound 3.16 µM, first compound 1 µM
[31] = second compound 3.16 µM, first compound 3.16 µM
[32] = second compound 3.16 µM, first compound 10 µM
[33] = second compound 10 µM, first compound 0.316 µM
[34] = second compound 10 µM, first compound 1 µM
[35] = second compound 10 µM, first compound 3.16 µM
[36] = second compound 10 µM, first compound 10 µM
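Also: spheroids exposed to compounds for seven days before readout.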

## CC[C@@]1(O)C(=O)OCc2c1cc1n(c2=O)Cc2cc3c(CN(C)C)c(O)ccc3nc2-1 + Nc1ccc(C#CCN(C(=O)Cc2ncc(C(F)(F)F)cc2C(F)(F)F)c2ccc(F)cc2)nn1
Second compound 0.0316 µM
  pIC50: 7.14
Second compound 0.1 µM
  pIC50: < 7.00
Second compound 0.316 µM
  pIC50: 7.11
Second compound 1 µM
  pIC50: 7.06
Second compound 3.16 µM
  pIC50: 7.20
Second compound 10 µM
  pIC50: 7.28
Second compound 0.0316 µM, first compound 0.000316 µM
  viability, T/C: 89.2%
Second compound 0.0316 µM, first compound 0.001 µM
  viability, T/C: 103%
Second compound 0.0316 µM, first compound 0.00316 µM
  viability, T/C: 88.6%
Second compound 0.0316 µM, first compound 0.01 µM
  viability, T/C: 70.7%
[1]
  viability, T/C: 66.2%
[2]
  viability, T/C: 44%
Second compound 0.1 µM, first compound 0.000316 µM
  viability, T/C: 98.9%
Second compound 0.1 µM, first compound 0.001 µM
  viability, T/C: 95.7%
Second compound 0.1 µM, first compound 0.00316 µM
  viability, T/C: 94.8%
Second compound 0.1 µM, first compound 0.01 µM
  viability, T/C: 82.3%
[3]
  viability, T/C: 71%
[4]
  viability, T/C: 50.6%
Second compound 0.316 µM, first compound 0.000316 µM
  viability, T/C: 107%
Second compound 0.316 µM, first compound 0.001 µM
  viability, T/C: 121%
Second compound 0.316 µM, first compound 0.00316 µM
  viability, T/C: 87.5%
Second compound 0.316 µM, first compound 0.01 µM
  viability, T/C: 87%
[5]
  viability, T/C: 73.3%
[6]
  viability, T/C: 43%
Second compound 1 µM, first compound 0.000316 µM
  viability, T/C: 99.5%
Second compound 1 µM, first compound 0.001 µM
  viability, T/C: 100%
Second compound 1 µM, first compound 0.00316 µM
  viability, T/C: 97.2%
Second compound 1 µM, first compound 0.01 µM
  viability, T/C: 94.4%
[7]
  viability, T/C: 74%
[8]
  viability, T/C: 46.7%
Second compound 3.16 µM, first compound 0.000316 µM
  viability, T/C: 92.6%
Second compound 3.16 µM, first compound 0.001 µM
  viability, T/C: 96%
Second compound 3.16 µM, first compound 0.00316 µM
  viability, T/C: 92.1%
Second compound 3.16 µM, first compound 0.01 µM
  viability, T/C: 76.6%
[9]
  viability, T/C: 61.8%
[10]
  viability, T/C: 42.9%
Second compound 10 µM, first compound 0.000316 µM
  viability, T/C: 75.2%
Second compound 10 µM, first compound 0.001 µM
  viability, T/C: 86.1%
Second compound 10 µM, first compound 0.00316 µM
  viability, T/C: 92.5%
Second compound 10 µM, first compound 0.01 µM
  viability, T/C: 76.6%
[11]
  viability, T/C: 61.3%
[12]
  viability, T/C: 35.6%

## Nc1ccn(C2OC(CO)C(O)C2(F)F)c(=O)n1 (stereo not drawn) + Nc1ccc(C#CCN(C(=O)Cc2ncc(C(F)(F)F)cc2C(F)(F)F)c2ccc(F)cc2)nn1
Second compound 0.0316 µM
  pIC50: 7.06
Second compound 0.1 µM
  pIC50: 6.94
Second compound 0.316 µM
  pIC50: 6.90
Second compound 1 µM
  pIC50: 6.92
Second compound 3.16 µM
  pIC50: 6.96
Second compound 10 µM
  pIC50: 6.94
[1]
  viability, T/C: 74.7%
[2]
  viability, T/C: 46.7%
[13]
  viability, T/C: 14.3%
[14]
  viability, T/C: 9.47%
[15]
  viability, T/C: 6.73%
[16]
  viability, T/C: 6.61%
[3]
  viability, T/C: 65.3%
[4]
  viability, T/C: 54.7%
[17]
  viability, T/C: 14.5%
[18]
  viability, T/C: 8.76%
[19]
  viability, T/C: 7.02%
[20]
  viability, T/C: 6.34%
[5]
  viability, T/C: 71.5%
[6]
  viability, T/C: 59.6%
[21]
  viability, T/C: 9.98%
[22]
  viability, T/C: 9.36%
[23]
  viability, T/C: 5.55%
[24]
  viability, T/C: 7.25%
[7]
  viability, T/C: 81%
[8]
  viability, T/C: 57.6%
[25]
  viability, T/C: 12%
[26]
  viability, T/C: 11.3%
[27]
  viability, T/C: 9.17%
[28]
  viability, T/C: 6.73%
[9]
  viability, T/C: 69.6%
[10]
  viability, T/C: 52.8%
[29]
  viability, T/C: 17.3%
[30]
  viability, T/C: 9.05%
[31]
  viability, T/C: 6.17%
[32]
  viability, T/C: 7.31%
[11]
  viability, T/C: 66.3%
[12]
  viability, T/C: 54.9%
[33]
  viability, T/C: 15%
[34]
  viability, T/C: 11.1%
[35]
  viability, T/C: 12.4%
[36]
  viability, T/C: 10.2%

## O=C(c1cc(Cc2n[nH]c(=O)c3ccccc23)ccc1F)N1CCN(C(=O)C2CC2)CC1 + Nc1ccc(C#CCN(C(=O)Cc2ncc(C(F)(F)F)cc2C(F)(F)F)c2ccc(F)cc2)nn1
Second compound 0.0316 µM
  pIC50: < 5.00
Second compound 0.1 µM
  pIC50: < 5.00
Second compound 0.316 µM
  pIC50: < 5.00
Second compound 1 µM
  pIC50: < 5.00
Second compound 3.16 µM
  pIC50: < 5.00
Second compound 10 µM
  pIC50: < 5.00
[1]
  viability, T/C: 84.3%
[2]
  viability, T/C: 109%
[13]
  viability, T/C: 94.2%
[14]
  viability, T/C: 81.7%
[15]
  viability, T/C: 97.1%
[16]
  viability, T/C: 88.1%
[3]
  viability, T/C: 102%
[4]
  viability, T/C: 104%
[17]
  viability, T/C: 105%
[18]
  viability, T/C: 84.9%
[19]
  viability, T/C: 99.1%
[20]
  viability, T/C: 106%
[5]
  viability, T/C: 101%
[6]
  viability, T/C: 81.2%
[21]
  viability, T/C: 83.8%
[22]
  viability, T/C: 94.7%
[23]
  viability, T/C: 98.2%
[24]
  viability, T/C: 83.4%
[7]
  viability, T/C: 104%
[8]
  viability, T/C: 98.4%
[25]
  viability, T/C: 90.5%
[26]
  viability, T/C: 94.8%
[27]
  viability, T/C: 82.6%
[28]
  viability, T/C: 87.5%
[9]
  viability, T/C: 90.7%
[10]
  viability, T/C: 106%
[29]
  viability, T/C: 92.9%
[30]
  viability, T/C: 95%
[31]
  viability, T/C: 101%
[32]
  viability, T/C: 90.9%
[11]
  viability, T/C: 88.1%
[12]
  viability, T/C: 93.9%
[33]
  viability, T/C: 95.5%
[34]
  viability, T/C: 89%
[35]
  viability, T/C: 74%
[36]
  viability, T/C: 83.9%

## O=c1[nH]cc(F)c(=O)[nH]1 + Nc1ccc(C#CCN(C(=O)Cc2ncc(C(F)(F)F)cc2C(F)(F)F)c2ccc(F)cc2)nn1
Second compound 0.0316 µM
  pIC50: 5.67
Second compound 0.1 µM
  pIC50: 5.67
Second compound 0.316 µM
  pIC50: 5.61
Second compound 1 µM
  pIC50: 5.64
Second compound 3.16 µM
  pIC50: 5.63
Second compound 10 µM
  pIC50: 5.66
[1]
  viability, T/C: 101%
[2]
  viability, T/C: 98.7%
[13]
  viability, T/C: 100%
[14]
  viability, T/C: 83.4%
[15]
  viability, T/C: 33.1%
[16]
  viability, T/C: 25.1%
[3]
  viability, T/C: 102%
[4]
  viability, T/C: 93.5%
[17]
  viability, T/C: 93.3%
[18]
  viability, T/C: 75.2%
[19]
  viability, T/C: 36.5%
[20]
  viability, T/C: 22.7%
[5]
  viability, T/C: 106%
[6]
  viability, T/C: 120%
[21]
  viability, T/C: 97.2%
[22]
  viability, T/C: 84.4%
[23]
  viability, T/C: 39.2%
[24]
  viability, T/C: 23.3%
[7]
  viability, T/C: 106%
[8]
  viability, T/C: 103%
[25]
  viability, T/C: 97.5%
[26]
  viability, T/C: 81.6%
[27]
  viability, T/C: 37.2%
[28]
  viability, T/C: 22.4%
[9]
  viability, T/C: 105%
[10]
  viability, T/C: 106%
[29]
  viability, T/C: 91%
[30]
  viability, T/C: 83.3%
[31]
  viability, T/C: 37.2%
[32]
  viability, T/C: 21.5%
[11]
  viability, T/C: 95.7%
[12]
  viability, T/C: 87.1%
[33]
  viability, T/C: 92.7%
[34]
  viability, T/C: 87.5%
[35]
  viability, T/C: 31.8%
[36]
  viability, T/C: 27.8%

Reference: PubChem BioAssay AID1963836 (Molecular Pharmacology Branch, DTP, NCI, 2024)
